The values below are quoted from earlier work in article PMC7702303, “Biochemical and transcript level differences between the three human phosphofructokinases show optimisation of each isoform for specific metabolic niches” (Biochemical Journal, 2020).

Where two headings read alike, the source gives them in different places. A value given as a limit tells only on which side of the number the result lay.

For one series, the system named is PFKL. Conditions: cited from earlier work.
The next series relates to PFKM. The note with it: cited from earlier work; for IC50 or AC50 (activator) / IC50: PFKM; for IC50: read-out: IC50 or AC50 (inhibitor); for KmF6P: PFK-M.
For a further series, the system named is PFK-P (HeLa cell). Further details: method as in Moreno-Sanchez et al(10) 2012. The note with it: tissue supernatant, ATP 550-700M, ref Moreno-Sanchez et al(10) 2012; cited from earlier work.
The subject of a further series is PFK-M (rat heart). Further details: method as in Moreno-Sanchez et al(10) 2012. Conditions: tissue supernatant, ATP 550-700M, ref Moreno-Sanchez et al(10) 2012; cited from earlier work.

Regarding `Nc1ncnc2c1ncn2[C@@H]1O[C@H](COP(=O)(O)O)[C@@H](O)[C@H]1O` [AMP], the IC50 or AC50 (activator) with PFKL (ref Foe and Kemp, 1985) is 10 µM; in the series with PFKM (ref Foe and Kemp, 1985) it was 10 µM.
Turning to `O=C(O)CC(O)(CC(=O)O)C(=O)O` [Citrate], the half-maximal inhibitory concentration (IC50) with PFKL (ref Foe and Kemp, 1985, read-out: IC50 or AC50 (inhibitor)) is more than 2000 µM; with PFKL (ref Vora 1985, read-out: IC50 or AC50 (inhibitor)), 180 µM; in the series with PFKM (ref Foe and Kemp, 1985), 100 µM; in the series on PFKM (ref Vora 1985) it was 130 µM.
On to `O=C(CO)[C@@H](O)[C@H](O)[C@H](O)COP(=O)(O)O` [F6P, fructose 6-phosphate], for which the KmF6P was 1100 µM in the series on PFK-P (HeLa cell); 145 µM in the series with PFK-M (rat heart); 2000 µM with PFKM (partially purified tissue, ATP 1000M, ref Dunaway et al(8) 1988); 1800 µM with PFKM (purified tissue, ATP 500M, ref Meienhofer et al(7) 1980); 2000 µM in the series with PFKM (recombinant (yeast), ATP 5000M, ref Sanchez-Martinez et al(9) 2000).
Take `O=P(O)(O)OC[C@H]1O[C@@](CO)(OP(=O)(O)O)[C@@H](O)[C@@H]1O` [F26BP, fructose 2,6-bisphosphate]: the IC50 or AC50 (activator) in the series on PFKL (ref Foe and Kemp, 1985) is 0.05 µM; in the series on PFKL (ref Van Schaftingen et al 1981), 0.04 µM; with PFKL (unit inferred, ref Vora 1985) it was 100 µM; in the series on PFKM (ref Foe and Kemp, 1985) it was 0.05 µM; with PFKM (unit inferred, ref Vora 1985), 10 µM.
